Key:
Format in all cases: in vivo
[1] = tested on: Abutilon theophrasti; assay: Greenhouse post-emergence treatment of Abutilon theophrasti (velvetleaf); conditions: scale 0 (no damage) to 100 (complete destruction); for damage / pest or weed control at 3000 g/ha: application rate 3.0 kg/ha; for pest or weed control at 2000 g/ha / pest or weed control at 3000 g/ha: Abutilon theophrasti; for pest or weed control at 2000 g/ha: application rate 2.0 kg/ha
From the text: (§1) The seeds of the test plants were sown separately for each species. For the post-emergence treatment, the test plants were first grown to a height of 3 to 15 cm, depending on the plant habit, and only then treated with the active ingredients which had been suspended or emulsified in water. For this purpose, the test plants were either sown directly and grown in the same containers, or they were first grown separately as seedlings and transplanted into the test containers a few days prior to treatment. Depending on the species, the plants were kept at 10-25° C. or 20-35° C. The test period extended over 2 to 4 weeks. During this time, the plants were tended, and their response to the individual treatments was evaluated. Evaluation was carried out using a scale from 0 to 100. 100 means no emergence of the plants, or complete destruction of at least the aerial moieties, and 0 means no damage, or normal course of growth. A good herbicidal activity is given at values of at least 80 and a very good herbicidal activity is given at values of at least 90. The plants used in the greenhouse experiments belonged to the following species: [table]

[2] = tested on: Setaria faberi; assay: Greenhouse post-emergence treatment of Setaria faberi (giant foxtail); conditions: for damage / pest or weed control at 3000 g/ha: application rate 3.0 kg/ha; for damage: scale 0 to 100; for pest or weed control at 2000 g/ha: application rate 2.0 kg/ha; for pest or weed control at 2000 g/ha / pest or weed control at 3000 g/ha: scale 0 to 100, read-out: damage
From the text: as §1

[3] = tested on: Amaranthus retroflexus L.; assay: Greenhouse post-emergence treatment of Amaranthus retroflexus L. (pigweed); conditions: for pest or weed control at 1000 g/ha / damage: application rate 1.0 kg/ha; for damage: scale 0 to 100
From the text: as §1

[4] = tested on: Chenopodium album; assay: Greenhouse post-emergence treatment of Chenopodium album (fat-hen); conditions: for pest or weed control at 1000 g/ha / damage: application rate 1.0 kg/ha; for damage: scale 0 to 100
From the text: as §1

[5] = scale 0 to 100, read-out: damage
[6] = application rate 0.927 kg/ha, scale 0 to 100, read-out: damage

Work on `O=C(O)c1cc(C2CC2)nc2onc(-c3ccc(-c4ccccc4)cc3)c12` [I.2.19] yielded a damage [1] of 100% and a damage [2] of 85%.

Molecule `CCCc1noc2nc(C3CC3)cc(C(=O)O)c12` [I.2.3] has a damage [1] of 100% and a damage [2] of 85%.

Work on `O=C(O)c1cc(C2CC2)nc2onc(-c3ccc(Br)cc3)c12` [I.2.20] yielded a damage [1] of 100% and a damage [2] of 95%.

In the case of `Cc1noc2nc(C3CC3)cc(C(=O)O)c12` [I.2.1], the pest or weed control at 2000 g/ha [1] is reported as 95% and the pest or weed control at 2000 g/ha [2] is reported as 100%.

For `CCc1cc(C(=O)O)c2c(C3CC3)noc2n1` [I.7.17], the pest or weed control at 3000 g/ha [1] was 100% and the pest or weed control at 3000 g/ha [2] was 90%.

`COC(=O)c1cc(C2CC2)nc2onc(C(F)(F)F)c12` [I.4.6] was tested, and the pest or weed control at 3000 g/ha [2] was 80%.

With `COC(=O)c1cc(C2CC2)nc2onc(C3CC3)c12` [I.8.4] the pest or weed control at 1000 g/ha [3, 5] was 100% and the pest or weed control at 1000 g/ha [4, 5] was 100%.

Work on `Cc1ccccc1-c1cc(C(=O)O)c2c(C)noc2n1` [I.5.8] yielded a damage [2] of 85%.

`O=C(O)c1cc(C2CC2)nc2onc(-c3ccncc3)c12` [I.2.16] gave a pest or weed control at 3000 g/ha [1] of 85% and a pest or weed control at 3000 g/ha [2] of 100%.

For `CC(C)(C)Oc1noc2nc(C3CC3)cc(C(=O)O)c12` [I.2.58], the pest or weed control at 1000 g/ha [3, 5] was 100% and the pest or weed control at 1000 g/ha [4, 5] was 100%.

Work on `CCc1noc2nc(C3CC3)cc(C(=O)O)c12` [I.2.25] yielded a pest or weed control at 3000 g/ha [2] of 95%.

For `COc1noc2nc(C3CC3)cc(C(=O)O)c12` [I.2.53], the pest or weed control at 1000 g/ha [3, 5] was 100% and the pest or weed control at 1000 g/ha [4, 5] was 100%.

In the case of `CON(C)C(=O)c1cc(C2CC2)nc2onc(C)c12` [I.1.83], the damage [3] is reported as 100% and the damage [4] is reported as 100%.

`O=C(O)c1cc(C2CC2(F)F)nc2onc(-c3ccccc3)c12` (stereo not drawn) [I.7.56] was tested, and the damage [3] was 80% and the damage [4] was 90%.

With `O=C(O)c1cc(C2CC2)nc2onc(-c3ccc(OC(F)F)cc3)c12` [I.2.45] the damage [3] was 98% and the damage [4] was 98%.

Work on `O=C(O)c1cc(C2CC2)nc2onc(-c3ccccc3)c12` [I.2.5] yielded a damage [1] of 100% and a damage [2] of 80%.

In the case of `CC(C)(C)c1ccc(-c2noc3nc(C4CC4)cc(C(=O)O)c23)cc1` [I.2.71], the damage [3] is reported as 100% and the damage [4] is reported as 100%.

With `COC(=O)c1cc(C2(F)CC2)nc2onc(C3CC3)c12` [I.7.53] the pest or weed control at 1000 g/ha [3, 5] was 100% and the pest or weed control at 1000 g/ha [4, 5] was 90%.

`COC(=O)c1cc(C2CC2)nc2onc(-c3cccnc3)c12` [I.4.2] gave a pest or weed control at 3000 g/ha [2] of 85%.

For `C=CCSC(=O)c1cc(C2CC2)nc2onc(C)c12` [I.1.80], the damage [3] was 98% and the damage [4] was 98%.

For `O=C(O)c1cc(C2CC2)nc2onc(CCc3ccccc3)c12` [I.2.11], the damage [1] was 100% and the damage [2] was 100%.

Work on `CC(C)c1noc2nc(C3CC3)cc(C(=O)O)c12` [I.2.6] yielded a pest or weed control at 3000 g/ha [1] of 100% and a pest or weed control at 3000 g/ha [2] of 95%.

`CC(C)Oc1noc2nc(C3CC3)cc(C(=O)O)c12` [I.2.57] was tested, and the pest or weed control at 1000 g/ha [3, 5] was 100% and the pest or weed control at 1000 g/ha [4, 5] was 100%.

In the case of `CC1CC1c1noc2nc(C3CC3)cc(C(=O)O)c12` (stereo not drawn) [I.2.13], the pest or weed control at 2000 g/ha [1] is reported as 100% and the pest or weed control at 2000 g/ha [2] is reported as 95%.

For `CCCc1noc2nc(C3(F)CC3)cc(C(=O)O)c12` [I.7.63], the damage [3] was 100% and the damage [4] was 100%.

Work on `COc1ccc(-c2noc3nc(C4CC4(F)F)cc(C(=O)O)c23)cc1` (stereo not drawn) [I.7.57] yielded a damage [3] of 80% and a damage [4] of 98%.

In the case of `O=C(O)c1cc(C2CC2)nc2onc(-c3ccccc3F)c12` [I.2.50], the damage [3] is reported as 100% and the damage [4] is reported as 100%.

For `COC(=O)c1cc(C2CC2)nc2onc(C3CC3C)c12` (stereo not drawn) [I.4.3], the pest or weed control at 3000 g/ha [2] was 90%.

`O=C(O)c1cc(C2(F)CC2)nc2onc(-c3ccccc3)c12` [I.7.62] showed a damage [3] of 100% and a damage [4] of 100%.

Work on `COc1ccccc1-c1cc(C(=O)O)c2c(C(C)C)noc2n1` [I.7.7] yielded a damage [2] of 85%.

In the case of `CC(C)c1noc2nc(-c3ccc(F)cc3)cc(C(=O)O)c12` [I.7.4], the damage [2] is reported as 80%.

In the case of `CSC(=O)c1cc(C2CC2)nc2onc(C)c12` [I.1.82], the damage [3] is reported as 98% and the damage [4] is reported as 98%.

Work on `O=C(O)c1cc(C2(F)CC2)nc2onc(-c3ccc(OC(F)F)cc3)c12` [I.7.65] yielded a damage [3] of 100% and a damage [4] of 100%.

`Cc1ccccc1-c1noc2nc(C3CC3)cc(C(=O)O)c12` [I.2.52] gave a damage [3] of 100% and a damage [4] of 98%.

Work on `Cc1noc2nc(-c3ccc(OC(F)F)cc3)cc(C(=O)O)c12` [I.5.13] yielded a damage [2] of 95%.

Work on `Cc1noc2nc(C3(F)CC3)cc(C(=O)O)c12` [I.7.51] yielded a pest or weed control at 3000 g/ha [2] of 90%.

With `COc1ccc(-c2noc3nc(C4(F)CC4)cc(C(=O)O)c23)cc1` [I.7.61] the damage [3] was 100% and the damage [4] was 100%.

`Cc1noc2nc(C3CC3)cc(C(=O)OCC#N)c12` [I.1.6] was tested, and the damage [1] was 100% and the damage [2] was 95%.

For `CCOc1ccc(-c2noc3nc(C4CC4)cc(C(=O)O)c23)cc1` [I.2.62], the damage [3] was 100% and the damage [4] was 100%.

`O=C(O)c1cc(C2CC2)nc2onc(C3(F)CC3)c12` [I.2.46] showed a pest or weed control at 1000 g/ha [3, 5] of 98% and a pest or weed control at 1000 g/ha [4, 5] of 98%.

Molecule `CC(C)c1ccc(-c2noc3nc(C4CC4)cc(C(=O)O)c23)cc1` [I.2.66] has a damage [3] of 100% and a damage [4] of 100%.

`CCCCOc1noc2nc(C3CC3)cc(C(=O)O)c12` [I.2.56] showed a damage [3] of 100% and a damage [4] of 100%.

With `O=C(O)c1cc(C2CC2)nc2onc(-c3cccnc3)c12` [I.2.15] the pest or weed control at 3000 g/ha [1] was 85% and the pest or weed control at 3000 g/ha [2] was 100%.

For `CC(C)Cc1noc2nc(C3(F)CC3)cc(C(=O)O)c12` [I.7.68], the damage [3] was 100% and the damage [4] was 100%.

In the case of `O=C(O)c1cc(C2CC2)nc2onc(C3CCCC3)c12` [I.2.14], the pest or weed control at 3000 g/ha [1] is reported as 100% and the pest or weed control at 3000 g/ha [2] is reported as 90%.

For `O=C(O)c1cc(C2(F)CC2)nc2onc(C3(F)CC3)c12`, the pest or weed control at 3000 g/ha [2] was 98%.

For `O=C(O)c1cc(C2CC2)nc2onc(-c3ccc(F)cc3)c12` [I.2.51], the damage [3] was 100% and the damage [4] was 100%.

In the case of `CCc1ccc(-c2noc3nc(C4CC4)cc(C(=O)O)c23)cc1` [I.2.61], the damage [3] is reported as 100% and the damage [4] is reported as 100%.

Molecule `Cc1noc2nc(C3CC3)cc(C(=O)SCc3ccccc3)c12` [I.1.79] has a damage [3] of 98% and a damage [4] of 85%.

For `NC(=O)c1cc(C2CC2)nc2onc(C3CC3)c12` [I.4.63], the pest or weed control at 1000 g/ha [3, 5] was 100% and the pest or weed control at 1000 g/ha [4, 5] was 100%.

Work on `O=C(O)c1cc(C2CC2)nc2onc(C3CC3)c12` [I.2.7] yielded a pest or weed control at 3000 g/ha [1] of 100% and a pest or weed control at 3000 g/ha [2] of 100%.

`COC(=O)c1cc(C2CC2)nc2onc(-c3cccc(OC)c3)c12` [I.4.19] showed a damage [2] of 100%.

Work on `O=C(O)c1cc(C2CC2)nc2onc(C(F)(F)F)c12` [I.2.10] yielded a pest or weed control at 3000 g/ha [1] of 90% and a pest or weed control at 3000 g/ha [2] of 85%.

With `CSC(=O)c1cc(C2CC2)nc2onc(C3CC3)c12` [I.4.60] the pest or weed control at 927 g/ha [3, 6] was 100% and the pest or weed control at 927 g/ha [4, 6] was 100%.

`CCOc1noc2nc(C3CC3)cc(C(=O)O)c12` [I.2.54] was tested, and the pest or weed control at 1000 g/ha [3, 5] was 100% and the pest or weed control at 1000 g/ha [4, 5] was 100%.

Work on `CCc1noc2nc(C3(F)CC3)cc(C(=O)O)c12` [I.7.90] yielded a pest or weed control at 1000 g/ha [3, 5] of 100% and a pest or weed control at 1000 g/ha [4, 5] of 100%.

With `CCCc1noc2nc(C3CC3)cc(C(=O)SC)c12` [I.4.59] the damage [3] was 95% and the damage [4] was 100%.

In the case of `O=C(O)c1cc(C2CC2(F)F)nc2onc(C3CC3)c12` (stereo not drawn) [I.7.55], the pest or weed control at 1000 g/ha [3, 5] is reported as 100% and the pest or weed control at 1000 g/ha [4, 5] is reported as 100%.

— patent US10334851B2, “Herbicidal isoxazolo[5,4-B]pyridines” (BASF SE, priority 2010, dated 2019)
